Measurements as given in patent US20050118613A1, “Methods and kits for predicting the likelihood of successful treatment of cancer” (Oncomethylome Sciences S.A., priority 2003, published 2005).

Legend:
[1] = test system: stage III CRC patients; test: Survival of stage III CRC patients treated by surgery alone or by surgery and 5-FU/leucovorin (matched cohorts), by CIMP status; format: in vivo, human
Text: A total of 891 stage III CRC cases were diagnosed at the Sir Charles Gairdner Hospital between 1985 and 1999 (14). This spans the time period during which 5-FU-based adjuvant chemotherapy was being introduced in Western Australia for the management of stage III CRC. Adjuvant chemotherapy was given to 270 (30%) patients according to the standard Mayo regimen (5-FU/leucovorin). This comprised at least two cycles of chemotherapy, and for the majority of patients the full six cycles were completed. Patients were separated into categories based on 5-year age intervals, gender, and site of tumor origin. […] Within these groups, adjuvant-treated and nontreated patients were pair-matched at random. A total cohort of 125 matched pairs was selected for DNA methylation analysis. […] All cases were diagnosed at a single pathology laboratory (Hospital and University Pathology Service/Pathcenter) associated with the Sir Charles Gairdner Hospital. This laboratory maintained relatively constant reporting practices during the 1985-1999 study period. Five cases were classified as T4 lesions, and all others were classified as T3. The study included 48 rectal, 24 sigmoid, 24 descending colon, 17 transverse colon, 47 ascending colon, and 46 cecal tumors. Four patients with rectal cancer received post-operative radiotherapy. Disease-specific survival information was obtained on all 206 patients by examination of hospital and West Australian Health Department records. The median follow-up time was 39 months (range, 1-172 months), with 119 patients (58%) dying as a result of recurrent disease by the end of the study. Survival data for 19 (9%) patients who died from other causes were censored at the time of death. It has been estimated that net migration out of the state of Western Australia is 0.4% per year, equating to approximately 1 case/year of the 206 cases investi-gated in this series. However, this rate is expected to be considerably lower for older individuals and particularly for those diagnosed with cancer. The Sir Charles Gairdner Hospital Human Research Ethics Committee gave approval for this study.
Methylation-specific PCR was used to determine the methylation status of CpG islands located within the p16 promoter (4, 5, 10, 17), the MINT-2 clone (3, 4), and the MDR1 promoter (4, 9). DNA amplification of all three CpG loci was successful for 103 matched pairs, equating to an overall success rate of approximately 90%. CIMP+ was arbitrarily defined as the presence of two or more of these sites showing methylation. Of the 206 tumors successfully analyzed in this study for CIMP+ status, the majority (83%) were sourced from formalin-fixed and paraffin-embedded archival tissue blocks. The remaining cases were in the form of unfixed tissue samples taken shortly after surgical resection and stored frozen at −80° C.
Multivariate Cox proportional hazard test with matched-pair stratification and Kaplan-Meier analyses were used to evaluate differences in survival between patient groups. Regression sensitivity was determined by analyzing the effect of unmeasured binary confounders as described by Lin et al. (20) Statistical analyses were performed using the Stata 7.0 (College Station, Tex.) software package. All Ps are two-sided.

[2] = test system: stage II and III colorectal cancers; test: Survival of stage II and III colorectal cancer patients treated by surgery alone or surgery plus standard 5FU chemotherapy, by hMLH1 methylation; format: in vivo, human
Text: The predictive value of hMLH1 methylation for survival benefit with 5FU chemotherapy was examined in a series of stage II and III colorectal cancers that had been treated by surgery alone (no chemotherapy) or by surgery plus standard 5FU chemotherapy.
The following primers were used to detect methylated hMLH1 following bisulfite conversion (utilising the MSP technique): […]

O=c1[nH]cc(F)c(=O)[nH]1 [5-FU, 5-fluorouracil]
RR (relative risk), predictive value of CIMP+ for survival benefit ([1]; CIMP+, multivariate analysis for matched pairs, independent of MSI+ and p53 status, 95% CI 0.06-0.84, P=0.027): 0.22 | long-term survival benefit from 5-FU treatment ([1]; CIMP- patients): no long-term survival benefit | RR (relative risk), survival benefit from 5-FU ([1]; CIMP- patients, 95% CI 0.62-1.49, P=0.86): 0.96 | RR (relative risk), survival benefit associated with the use of 5-FU ([1]; all stage III CRC patients, surgery + 5-FU vs surgery alone, 95% CI 0.43-0.90, P=0.012): 0.62 | survival of CIMP+ patients compared to CIMP- ([1]; cohort treated with surgery plus 5-FU): trend for better survival | patients who died from recurrent CRC despite the use of 5-FU ([1]; patients with CIMP+ tumors): approximately 40% | survival of patient group ([2]; hMLH1 methylated, chemotherapy (10/10), P = 0.097 vs no chemotherapy): 10/10 (100%) P = 0.097 | survival of patient group ([2]; hMLH1 non-methylated, chemotherapy (15/22), P = NS vs no chemotherapy): 15/22 (68%) P = NS | impact of chemotherapy on overall survival ([2]; patients with methylated hMLH1 gene, chemotherapy vs no chemotherapy (FIG. 3C)): positive impact
